# ± gives the expanded uncertainty stated by the source.
# Columns and labels:
# [1] = DTA
# [2] = Molar enthalpy of transition or fusion; conditions: DSC
Triple point temperature ([1]; Crystal 1) [K],Triple point temperature ([1]; Crystal 2) [K],Molar enthalpy of transition or fusion ([2]; Crystal 1) [kcal/mol],Molar enthalpy of transition or fusion ([2]; Crystal 2) [kcal/mol],SMILES,Triple point temperature ([1]; Crystal) [K],Molar enthalpy of transition or fusion ([2]; Crystal) [kcal/mol]
–,–,–,–,c1ccc2c(c1)oc1ccccc12 [dibenzo[bd]furan],353.87 ± 0.5,5.33 ± 0.16
329.21 ± 0.5,326.4 ± 0.5,16.3 ± 0.43,8.78 ± 0.239,CCCCCCCCCCCCCCCCCCCCCCCCCC [hexacosane],–,–
–,–,–,–,c1ccc(-c2ccccc2)cc1 [biphenyl],340.69 ± 0.5,4.45 ± 0.136

# Source: the NIST ThermoML archive (doi:10.1021/je5001389)
